{"source": "ChEMBL document CHEMBL5154879", "about": "“Induction of Genes Implicated in Stress Response and Autophagy by a Novel Quinolin-8-yl-nicotinamide QN523 in Pancreatic Cancer” (J Med Chem, 2022)", "key": {"[1]": {"assay": "Downregulation of INCENP gene expression in human MIA PaCa-2 cells assessed as fold change in INCENP expression at 1 uM incubated for 24 hrs by Bru-seq analysis relative to control", "assay_type": "functional"}, "[2]": {"test_system": "MIA PaCa-2", "assay": "Induction of apoptosis in human MIA PaCa-2 cells assessed as early apoptotic cells at 0.5 uM incubated for 48 hrs by Annexin V-FITC/PI staining based flow cytometry analysis (reference value: 1.8%)", "assay_type": "functional"}, "[3]": {"assay": "Upregulation of MAP1LC3B gene expression in human MIA PaCa-2 cells assessed as fold change in MAP1LC3B expression at 1 uM incubated for 24 hrs by Bru-seq analysis relative to control", "assay_type": "functional"}, "[4]": {"assay": "Upregulation of SERPINB8 gene expression in human MIA PaCa-2 cells assessed as fold change in SERPINB8 expression at 1 uM incubated for 24 hrs by Bru-seq analysis relative to control", "assay_type": "functional"}, "[5]": {"assay": "Upregulation of UPP1 gene expression in human MIA PaCa-2 cells assessed as fold change in UPP1 expression at 1 uM incubated for 24 hrs by Bru-seq analysis relative to control", "assay_type": "functional"}, "[6]": {"test_system": "MIA PaCa-2", "assay": "Induction of apoptosis in human MIA PaCa-2 cells assessed as viable cells at 0.5 uM incubated for 48 hrs by Annexin V-FITC/PI staining based flow cytometry analysis (reference value: 96.3%)", "assay_type": "functional", "conditions": "read-out: Activity"}, "[7]": {"test_system": "MIA PaCa-2", "assay": "Induction of cell cycle arrest in human MIA PaCa-2 cells assessed as accumulation of cells in G2/M phase at 0.1 uM incubated for 48 hrs by RNase/propidium iodide staining based flow cytometry analysis (reference value: 2.71%)", "assay_type": "functional"}, "[8]": {"assay": "Downregulation of SMAD6 gene expression in human MIA PaCa-2 cells assessed as fold change in SMAD6 expression at 1 uM incubated for 24 hrs by Bru-seq analysis relative to control", "assay_type": "functional"}, "[9]": {"test_system": "MIA PaCa-2", "assay": "Upregulation of UPR gene expression in human MIA PaCa-2 cells by gene set enrichment analysis", "assay_type": "functional, cell-based"}, "[10]": {"assay": "Toxicity in NOD/SCID mouse xenografted with human MIA PaCa-2 cells assessed as lethargy at 10 to 20 mg/kg, ip administered five times a week for 44 days", "assay_type": "organism-based", "conditions": "in vivo, 1056 h, dose 10-20 mg/kg, time 44 day"}, "[11]": {"assay": "Downregulation of TACC3 gene expression in human MIA PaCa-2 cells assessed as fold change in TACC3 expression at 1 uM incubated for 24 hrs by Bru-seq analysis relative to control", "assay_type": "functional"}, "[12]": {"test_system": "MIA PaCa-2", "assay": "Induction of cell cycle arrest in human MIA PaCa-2 cells assessed as accumulation of cells at S phase at 0.5 uM incubated for 48 hrs by RNase/propidium iodide staining based flow cytometry analysis (Rvb =26.9 %)", "assay_type": "functional"}, "[13]": {"assay": "Downregulation of LAMA5 gene expression in human MIA PaCa-2 cells assessed as fold change in LAMA5 expression at 1 uM incubated for 24 hrs by Bru-seq analysis relative to control", "assay_type": "functional"}, "[14]": {"test_system": "HCT-116", "assay": "Antiproliferative activity against human HCT-116 cells assessed as inhibition of cell growth incubated for 72 hrs by MTT assay", "assay_type": "functional, cell-based", "conditions": "HCT-116, 72 h"}, "[15]": {"test_system": "MIA PaCa-2", "assay": "Induction of apoptosis in human MIA PaCa-2 cells assessed as early apoptotic cells at 0.5 uM incubated for 24 hrs by Annexin V-FITC/PI staining based flow cytometry analysis (reference value: 5.1%)", "assay_type": "functional"}, "[16]": {"test_system": "MIA PaCa-2", "assay": "Upregulation of ATF3 gene expression in human MIA PaCa-2 cells incubated for 72 hrs by Western blot analysis", "assay_type": "functional, cell-based", "conditions": "dose <= 600.0 µM, DDE = dose-dependent effect"}, "[17]": {"test_system": "MIA PaCa-2", "assay": "Downregulation of chromosomal proteins expression in human MIA PaCa-2 cells", "assay_type": "functional, cell-based"}, "[18]": {"assay": "Toxicity in NOD/SCID mouse xenografted with human MIA PaCa-2 cells assessed as change in body weight at 30 mg/kg, ip administered five times a week starting from day 44 to 51 post first dose", "assay_type": "organism-based", "conditions": "in vivo, 1224 h, time 51 day"}, "[19]": {"test_system": "MIA PaCa-2", "assay": "Upregulation of stress response gene expression in human MIA PaCa-2 cells", "assay_type": "functional, cell-based"}, "[20]": {"test_system": "SNU-387", "assay": "Antiproliferative activity against human SNU-387 cells assessed as inhibition of cell growth incubated for 72 hrs by MTT assay", "assay_type": "functional, cell-based", "conditions": "SNU-387, 72 h"}, "[21]": {"test_system": "MIA PaCa-2", "assay": "Induction of ER stress pathway in human MIA PaCa-2 cells by ingenuity pathway analysis", "assay_type": "functional, cell-based"}, "[22]": {"assay": "Toxicity in NOD/SCID mouse xenografted with human MIA PaCa-2 cells assessed as weight loss at 10 to 20 mg/kg, ip administered five times a week for 44 days", "assay_type": "organism-based", "conditions": "in vivo, 1056 h, dose 10-20 mg/kg, time 44 day"}, "[23]": {"test_system": "MIA PaCa-2", "assay": "Induction of cell cycle arrest in human MIA PaCa-2 cells assessed as accumulation of cells in G0/G1 phase at 0.5 uM incubated for 24 hrs by RNase/propidium iodide staining based flow cytometry analysis (reference value: 64.3%)", "assay_type": "functional"}, "[24]": {"test_system": "MIA PaCa-2", "assay": "Induction of apoptosis in human MIA PaCa-2 cells assessed as early apoptotic cells at 0.1 uM incubated for 24 hrs by Annexin V-FITC/PI staining based flow cytometry analysis (reference value: 5.1%)", "assay_type": "functional"}, "[25]": {"assay": "Upregulation of DDIT3 gene expression in human MIA PaCa-2 cells assessed as fold change in DDIT3 expression at 1 uM incubated for 24 hrs by Bru-seq analysis relative to control", "assay_type": "functional"}, "[26]": {"assay": "Upregulation of SLFN5 gene expression in human MIA PaCa-2 cells assessed as fold change in SLFN5 expression at 1 uM incubated for 24 hrs by Bru-seq analysis relative to control", "assay_type": "functional"}, "[27]": {"assay": "Downregulation of SEMA6B gene expression in human MIA PaCa-2 cells assessed as fold change in SEMA6B expression at 1 uM incubated for 24 hrs by Bru-seq analysis relative to control", "assay_type": "functional"}, "[28]": {"assay": "Upregulation of OSGIN1 gene expression in human MIA PaCa-2 cells assessed as fold change in OSGIN1 expression at 1 uM incubated for 24 hrs by Bru-seq analysis relative to control", "assay_type": "functional"}, "[29]": {"test_system": "MIA PaCa-2", "assay": "Antitumor activity against human MIA PaCa-2 cells xenografted in NOD/SCID mouse assessed as tumor growth delay at 20 mg/kg, ip administered five times a week starting from day 10 to 44 post first dose and measured from day 17", "assay_type": "functional, organism-based", "conditions": "time 44.0 day"}, "[30]": {"test_system": "MIA PaCa-2", "assay": "Inhibition of colony formation in human MIA PaCa-2 cells at 0.1 to 1 uM incubated for 10 to 14 days by crystal violet staining based assay", "assay_type": "functional, cell-based", "conditions": "dose 0.1-1 µM, time 10-14 day"}, "[31]": {"test_system": "MIA PaCa-2", "assay": "Upregulation of apoptosis transcription gene expression in human MIA PaCa-2 cells", "assay_type": "functional, cell-based"}, "[32]": {"test_system": "MIA PaCa-2", "assay": "Induction of autophagy in human MIA PaCa-2 cells assessed as accumulation of WIP11 marker gene expression at upto 2 uM incubated for 72 hrs by Western blot analysis", "assay_type": "functional, cell-based"}, "[33]": {"assay": "Toxicity in NOD/SCID mouse xenografted with human MIA PaCa- 2 cells assessed as morphological changes in liver at 10 to 20 mg/kg, ip administered five times a week for 44 days by H and E staining based inverted microscopic analysis", "assay_type": "organism-based", "conditions": "in vivo, 1056 h, dose 10-20 mg/kg, time 44 day"}, "[34]": {"assay": "Upregulation of HSPA5 gene expression in human MIA PaCa-2 cells assessed as fold change in HSPA5 expression at 1 uM incubated for 24 hrs by Bru-seq analysis relative to control", "assay_type": "functional"}}, "note": "The source made the active and inactive calls. The rule behind the calls is not given here."}
{"compound": "O=C(Nc1cccc2cccnc12)c1cnccn1", "values": [{"measurement": "fold change (FC)", "setting": "[1]", "value": 0.46}, {"measurement": "Activity", "setting": "[2]", "value": 2.2, "unit": "%"}, {"measurement": "fold change (FC)", "setting": "[3]", "value": 6.8}, {"measurement": "fold change (FC)", "setting": "[4]", "value": 5.3}, {"measurement": "fold change (FC)", "setting": "[5]", "value": 18.2}, {"measurement": "viability at 0.5 µM", "setting": "[6]", "value": 95.3, "unit": "%"}, {"measurement": "Activity", "setting": "[7]", "value": 8.22, "unit": "%"}, {"measurement": "fold change (FC)", "setting": "[8]", "value": 0.44}, {"measurement": "Activity", "setting": "[9]", "value": "Active"}, {"measurement": "Activity", "setting": "[10]", "value": "Non-Toxic"}, {"measurement": "fold change (FC)", "setting": "[11]", "value": 0.45}, {"measurement": "Activity", "setting": "[12]", "value": 57.3, "unit": "%"}, {"measurement": "fold change (FC)", "setting": "[13]", "value": 0.42}, {"measurement": "IC50", "setting": "[14]", "value": 100, "unit": "nM"}, {"measurement": "Activity", "setting": "[15]", "value": 10.1, "unit": "%"}, {"measurement": "Activity", "setting": "[16]", "value": "Dde"}, {"measurement": "Activity", "setting": "[17]", "value": "Active"}, {"measurement": "Activity", "setting": "[18]", "value": "Non-Toxic"}, {"measurement": "Activity", "setting": "[19]", "value": "Active"}, {"measurement": "IC50", "setting": "[20]", "value": 5730, "unit": "nM"}, {"measurement": "Activity", "setting": "[21]", "value": "Active"}, {"measurement": "Activity", "setting": "[22]", "value": "Non-Toxic"}, {"measurement": "Activity", "setting": "[23]", "value": 44.5, "unit": "%"}, {"measurement": "Activity", "setting": "[24]", "value": 10.7, "unit": "%"}, {"measurement": "fold change (FC)", "setting": "[25]", "value": 11}, {"measurement": "fold change (FC)", "setting": "[26]", "value": 10.3}, {"measurement": "fold change (FC)", "setting": "[27]", "value": 0.43}, {"measurement": "fold change (FC)", "setting": "[28]", "value": 7.8}, {"measurement": "Activity", "setting": "[29]", "value": "Active"}, {"measurement": "inhibition", "setting": "[30]", "value": "Active"}, {"measurement": "Activity", "setting": "[31]", "value": "Active"}, {"measurement": "Activity", "setting": "[32]", "value": "Active"}, {"measurement": "Activity", "setting": "[33]", "value": "Non-Toxic"}, {"measurement": "fold change (FC)", "setting": "[34]", "value": 8.8}]}
